Reference: patent publication US20040131648A1, “Nuclear hormone receptor compounds, products and methods employing same” (The Procter & Gamble Company, priority 2002, published 2004)

Tested on: area of the skin in need of beautifying
Test: Topical administration of beta-ionol analog to human skin
Type: in vivo
Settings: daily treatments, after two weeks
Procedure: A Beta-ionol analog, melafleur alcohol, is administered topically to a human directly onto an area of the skin in need of beautifying.

SMILES: CC1(C)CCCC2=C1CC(CO)CC2 (stereo not shown) [melafleur alcohol, 2-Naphthalenemethanol, 1,2,3,4,5,6,7,8-octahydro-8,8-dimethyl-]
- health and vitality of treated areas of the skin: increased health and vitality
